Holding throughout (type): in vivo, Cydia pomonella
Test [1] concerns codling moth. Description: Inherent attractancy field test of HPV blends in baited sticky traps in walnut orchard. Conditions: walnut orchard, blends 10 mg/white septa, ethyl (2E,4Z)-2,4-decadienoate 5 mg. As to the method: The blends listed in Table 2 were then field tested in walnut orchards for their attractancy to male and female codling moths, and also for enhancement with synthetic codling moth pheromone and other additives identified above. Their total capture (both males and females), and their individual male and female capture were determined and results obtained, were compared to insect capture obtained with purified individual ester, compound #25 namely ethyl (2E,4Z)-2,4-decadienoate, and to the codling moth male sex pheromone compound #26 in Table 3.
Individual blends containing representative aldehyde, alcohol, ester, monoterpene or sesquiterpene blends were provided in the traps in 10 mg/white septa.
Individual host-plant volatile (HPV) blends identified by the #1-23 in Table 3 were tested for codling moth attractancy in a walnut orchard, and the results were compared to the isolated purified ethyl (2E,4Z)-2,4-decadienoate (#25), to pheromone (#26) and to solvent controls (#24).
Twenty-five HPV blends and eight individual compounds were field tested. One synthetic blend, “ester blend #10,” elicited excellent codling moth attraction. In field tests, the other tested blends (see Table 3) and compounds captured no moths over a three month period, except for an “apple-skin surface extract” (Golden Delicious, ether solvent) (Σ=3 codling moth captured, 1♂: 2♀♀) and the individual compound, (E,E)-α-farnesene (Σ=1♂ codling moth captured). The field tests are presented in Table 3 and show attraction specificity for HPV ester blend #10.
Sticky traps (ICP and IIB traps, Trécé, Inc. Salinas, Calif.) were baited with either extracts, blends of HPVs, or individual HPVs (>95% purity) that evaporated from impregnated rubber septa. HPV blends, or individual HPV compounds, were diluted in hexane and pipetted onto rubber septa at approximate doses of 10 mg/septum. A single treatment septum was placed in each sticky wing-trap, and hung approximately six meters high in the outer walnut canopy. Trap liners and treatment HPV septa were replaced every 10-14 days and pheromone septa every month and tests were conducted throughout two summers.
A replicated series of different HPV treatment traps, control “blank” (unbaited) trap, and a commercial pheromone-baited trap (Trécé, Inc.) were distributed 5 trees apart throughout two distant Hartley walnut orchards and validated in 12 walnut orchards. The orchards were distinct, with one using three summer insecticide sprays and the other had no spraying. Thus, these test orchards had low vs. moderate relative populations of codling moths. Significant effects on the gender of codling moths captured were judged by paired tests, either T-test or a nonparametric test.

The subject of test [2] is codling moth. Nature of the test: Trap capture with proportional mixes of ethyl 2,4-decadienoate isomers. Conditions: 1 mg dose/gray septum. The procedure: Additionally, studies were performed to determine the attraction of codling moth to proportional mixes of (2E,4Z) and (2E,4E) isomers of ethyl 2,4-decadienoate and highly purified samples of each. Traps were baited with 1 mg dose/gray septum.

For test [3], the system named is codling moth. Nature of the test: Sticky traps baited with the single compound or pheromone. The source says:
FIG. 5 illustrates mean attraction of female and male codling moths to sticky traps baited with a single host plant volatile, ethyl (2E,4Z)-2,4-decadienoate. The attraction was followed over a two month period.

Test [4] deals with first-instar or neonate larval worms of the codling moth. Description: Dual-choice larval orientation bioassay in petri dishes. The procedure: Behavioral orientation responses in the laboratory of first-instar or neonate larval worms of the codling moth are seen in Table 16. Data shown in Table 16 represents means of to 50 bioassay replications using five neonates per experiment conducted in small areas (10 cm diameter petri dishes). Experiments were dual-choice tests, where the released neonate larvae crawled and made perceptual choices between two small (one cm diameter) filter paper discs, with one disk treated with 1 ug or 10 ug of ethyl (2E,4Z) decadienoate and the other disc treated with an equivalent volume of solvent (methylene chloride).

The test system of test [5] is codling moth. Nature of the test: Field study of individual alcohols, aldehydes and esters. Conditions: individual compounds typically of purity 90-98%. An excerpt: Attractive activity of these compounds for male and female codling moth was compared to purified ethyl (2E,4Z)-2,4-decadienoate.
When the cumulative evaluation of all studied compounds and/or blends containing aldehyde, alcohol, ester and terpene compounds was made, the following results clearly confirmed the findings seen in Table 3.

The subject of another test is codling moths. Description: Effect of sample purity on trap capture. The procedure: Additional purification procedures were conducted to show the differences and superiority of purified pear and apple volatiles over commercially available products. For that purpose, extracts were purified from commercially available compounds, typically available in only about 80-85% purity, to a purity between 90-100%, preferably over 98% purity. As the purity of the sample of ethyl (2E,4Z)-2,4-decadienoate increased so also did its attractancy to codling moths. For example, the mean captures (±SEM) were 4.5 (±2.0) for an 86% pure sample, 6.5 (±4.4) for a 93.6% pure sample and 9.3 (±3.2) for 98.8% pure sample.

Test [6] has as its system codling moth. Nature of the test: Trap capture in a pheromone mating disruption treated walnut orchard. Conditions: 10 mg/lure, FIG. 6. As to the method:
FIG. 6 illustrates total capture of codling moth males and females, in a mating disruption treated orchard by using pheromone lures (-▴-) and by using lures containing ethyl (2E,4Z)-2,4-decadienoate (-♦-) (10 mg/lure)

Test [7] has as its system codling moth. Description: Low loading dose response trap study (FIG. 13). Conditions: loading doses 0.1 μg to 10 mg in grey septa. As to the method: In this study, both males (-Δ-) and females (-□-) responded to a threshold dose of less than 10 μg of the ester attractant, while at progressively higher loading rates females were more responsive than males.
Setting [8] is: Table 15, sticky trap, 3 traps, 43 trap checks (pheromone: 1 trap, 19 trap checks).
The mark [9] stands for this setting: five neonates per experiment, disc with 1 ug or 10 ug vs solvent disc.

Regarding `CCCCC/C=C\C=C\C(=O)OCC` [Ethyl (2E,4Z)-2,4-Decadienoate, ethyl (2E,4Z)-2,4-decadienoate], in the test with codling moth [1], the “FEMALE CM Captured with HPV; ♀♀/trap night ± SEM” value was 2.04 ± 0.85 ♀♀/trap night, the “MALE CM Captured with HPV; ♂♂/trap/night ± SEM” value is given as 1.42 ± 0.59 ♂♂/trap/night and the “Total CM Captured with HPV: (CM/trap/night ± SEM)” value turned out to be 3.46 ± 1.44 CM/trap/night. In addition, the “Total CM Captured with HPV: (CM/trap/night ± SEM)” value in the test with codling moth [1] (listed as #25) is recorded as 3.46 CM/trap/night. In the test on codling moth [2], the “Female CM Captured ♀♀/trap/night ± SEM” value is recorded as 0.76 ± 0.10 ♀♀/trap/night, the “MALE CM Captured: ♂♂/trap/night ± SEM” value is 0.62 ± 0.29 ♂♂/trap/night and the “Total CM Captured: CM/trap ± SEM” value is given as 1.38 ± 0.37 CM/trap. In the test with codling moth [3] (Table 15, sticky trap), the “Female Capture: Sum:” value was 76.4 Moths/Trap/Night and the “Male Capture: Sum:” value worked out at 24.9 Moths/Trap/Night. Further, in the test on codling moth [3] (setting [8]), the “Female Capture: Mean ± SEM” value stood at 1.78 ± 0.45 Moths/Trap/Night and the “Male Capture: Mean ± SEM” value came to 0.58 ± 0.12 Moths/Trap/Night. The “attractiveness relative to pheromone” value in the test with codling moth [3] (sticky traps, two month period) is reported as “approximately 48%”. In addition, the “Arrestment; average time (sec) on or under disc:” value in test [4] (1 ug dose of attractant) turned out to be 19.7 ± 5.6 s. For the same compound, the “Arrestment; average time (sec) on or under disc:” value in test [4] (10 ug dose of attractant) came out at 33.0 ± 10.7 s. In test [4] (setting [9]), the “Attraction; average number of neonates contacting disc: x ± SEM” value was 4.5 ± 0.9 and the “Latency: average time (sec) to first arrive at disc: x ± SEM” value was 74.5 ± 16.1 s. The “attractancy to male and female codling moth (in words)” value in the test on codling moth [5] was “most active”. Besides, the “mean captures (±SEM)” value in the test on codling moths (86% pure sample) is 4.5 (±2.0). The “mean captures (±SEM)” value with codling moths (93.6% pure sample) is 6.5 (±4.4). Further, in the test on codling moths (98.8% pure sample), the “mean captures (±SEM)” value was 9.3 (±3.2). Also, the “number of codling moths captured relative to lures with pheromone only” value with codling moth [6] is “more than double”. Besides, the “threshold dose to which males and females responded” value in the test on codling moth [7] is “less than 10 μg”.

For the origin of these results see US6528049B2, “Bisexual attractants, aggregants and arrestants for adults and larvae of codling moth and other species of lepidoptera” (Trece, Inc., priority 1999, dated 2003).
